Measurements reported in patent publication US20190100553A1, “DIRECT ACTIVITY ASSAYS AND COMPOSITIONS FOR NUCLEOTIDE POOL SANITIZING ENZYMES” (priority 2016, published 2019).

Biological target: T1, MTH1 (Homo sapiens, UniProt P36639)
T1 construct: Human MTH1 full length protein purchased from Abcam (Cambridge, USA); purchased Abcam
Assay: MTH1 inhibitor IC50 determination by two-tube OGAL probe assay
Type: biochemical
Conditions: 40 μM OGAL, read-out: apparent IC50
Procedure: Inhibitory concentration (IC50) values were determined by the two-tube OGAL probe assay. The reaction buffer contained: 50 mM NaCl, 10 mM Tris-HCl (pH 7.9), 10 mM MgCl2, 1 mM DTT, 40 μM OGAL nucleotides, and varied concentrations of inhibitors. After 15 min incubation at 30° C., 5 μL of this reaction solution was added to 95 μL luciferase reaction solution in a 96 well plate to measure ATP signals. All the reactions were performed as three replicates. The IC50 was calculated using GraphPad Prism software.

IC50: 1900 nM
Compound: Nc1ncnc2c1c(-c1cccc(OCc3ccccc3)c1)cn2C1CC(CN2CCC2)C1 (stereo not shown) [NVP-AEW541]
